Experimental data published in the supplement of paper PMC10307832.

How the values were obtained:
Assay in all cases: relative viability (nuclei count vs DMSO), 5 days (fraction); higher = more cells survive
Sunitinib + Phenformin = compound: CCN(CC)CCNC(=O)c1c(C)[nH]c(/C=C2\C(=O)Nc3ccc(F)cc32)c1C [Sunitinib] + N=C(N)NC(=N)NCCc1ccccc1 [Phenformin] (partner 250 µM)
In short: (§1)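 Lung cancer cell lines were seeded in 1536-well plates and dosed by pin tool the next day, with either a single drug or a fixed anchor-drug dose combined with five library-drug doses (not always all listed) spaced in √10 steps. Five days later, one step fixed the cells and stained their nuclei (final 0.05% Triton X-100, 1% formaldehyde, 1 ug/ml Hoechst), and nuclei were counted on 4× images. Relative viability is the nuclei count in treated wells divided by the count in vehicle wells, and each value is the median of duplicate plates.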

Sunitinib + Pemetrexed = compound: CCN(CC)CCNC(=O)c1c(C)[nH]c(/C=C2\C(=O)Nc3ccc(F)cc32)c1C [Sunitinib] + Nc1nc2[nH]cc(CCc3ccc(C(=O)N[C@@H](CCC(=O)O)C(=O)O)cc3)c2c(=O)[nH]1 [Pemetrexed] (partner 0.2 µM)
In short: as §1

Sunitinib + Navitoclax = compound: CCN(CC)CCNC(=O)c1c(C)[nH]c(/C=C2\C(=O)Nc3ccc(F)cc32)c1C [Sunitinib] + CC1(C)CCC(c2ccc(Cl)cc2)=C(CN2CCN(c3ccc(C(=O)NS(=O)(=O)c4ccc(N[C@H](CCN5CCOCC5)CSc5ccccc5)c(S(=O)(=O)C(F)(F)F)c4)cc3)CC2)C1 [Navitoclax] (partner 0.5 µM)
In short: as §1

Sunitinib + Trametinib = compound: CCN(CC)CCNC(=O)c1c(C)[nH]c(/C=C2\C(=O)Nc3ccc(F)cc32)c1C [Sunitinib] + CC(=O)Nc1cccc(-n2c(=O)n(C3CC3)c(=O)c3c(Nc4ccc(I)cc4F)n(C)c(=O)c(C)c32)c1 [Trametinib] (partner 0.02 µM)
In short: as §1

Cell Line | relative viability (Sunitinib + Phenformin; first compound 0.02 µM) | relative viability (Sunitinib + Phenformin; first compound 0.06325 µM) | relative viability (Sunitinib + Phenformin; first compound 0.2 µM) | relative viability (Sunitinib + Phenformin; first compound 0.6325 µM) | relative viability (Sunitinib + Phenformin; first compound 2 µM) | relative viability (Sunitinib + Pemetrexed; first compound 0.02 µM) | relative viability (Sunitinib + Pemetrexed; first compound 0.06325 µM) | relative viability (Sunitinib + Pemetrexed; first compound 0.2 µM) | relative viability (Sunitinib + Pemetrexed; first compound 0.6325 µM) | relative viability (Sunitinib + Pemetrexed; first compound 2 µM) | relative viability (Sunitinib + Navitoclax; first compound 0.02 µM) | relative viability (Sunitinib + Navitoclax; first compound 0.06325 µM) | relative viability (Sunitinib + Navitoclax; first compound 0.2 µM) | relative viability (Sunitinib + Navitoclax; first compound 0.6325 µM) | relative viability (Sunitinib + Navitoclax; first compound 2 µM) | relative viability (Sunitinib + Trametinib; first compound 0.02 µM) | relative viability (Sunitinib + Trametinib; first compound 0.06325 µM) | relative viability (Sunitinib + Trametinib; first compound 0.2 µM) | relative viability (Sunitinib + Trametinib; first compound 0.6325 µM) | relative viability (Sunitinib + Trametinib; first compound 2 µM)
LK-2 | 0.224 | 0.427 | 0.406 | 0.494 | 0.249 | 0.266 | 0.335 | 0.31 | 0.254 | 0.292 | 0.737 | 0.963 | 1.12 | 0.862 | 0.836 | 0.498 | 0.809 | 0.858 | 0.747 | 0.964
NCI-H2170 | 0.474 | 0.398 | 0.436 | 0.408 | 0.367 | 0.259 | 0.274 | 0.432 | 0.291 | 0.275 | 0.607 | 0.681 | 0.572 | 0.651 | 0.445 | 0.905 | 0.915 | 1.05 | 0.927 | 0.921
HCC-827 | 0.366 | 0.401 | 0.439 | 0.403 | 0.291 | 0.265 | 0.29 | 0.28 | 0.584 | 0.289 | 1.01 | 1.05 | 1.04 | 1.01 | 0.978 | 0.555 | 0.61 | 0.558 | 0.613 | 0.618
NCI-H460 | 0.48 | 0.567 | 0.54 | 0.535 | 0.487 | 0.0562 | 0.061 | 0.0606 | 0.0589 | 0.0505 | 0.862 | 1.19 | 1.37 | 1.41 | 1.08 | 0.104 | 0.185 | 0.226 | 0.287 | 0.191
NCI-H1915 | 0.348 | 0.396 | 0.43 | 0.367 | 0.368 | 0.428 | 0.486 | 0.499 | 0.527 | 0.484 | 0.764 | 0.765 | 0.833 | 0.815 | 0.805 | 0.291 | 0.291 | 0.304 | 0.298 | 0.261
EPLC-272H | 0.335 | 0.334 | 0.324 | 0.313 | 0.263 | 0.39 | 0.298 | 0.314 | 0.42 | 0.363 | 1.09 | 1.2 | 1.38 | 1.12 | 0.921 | 0.253 | 0.271 | 0.287 | 0.283 | 0.288
NCI-H1666 | 0.569 | 0.587 | 0.55 | 0.586 | 0.538 | 0.827 | 0.834 | 0.936 | 0.867 | 0.997 | 1.03 | 0.921 | 1.22 | 0.836 | 0.96 | 0.843 | 0.888 | 1.09 | 0.879 | 0.882
NCI-H838 | 0.546 | 0.769 | 0.583 | 0.583 | 0.511 | 0.239 | 0.258 | 0.263 | 0.243 | 0.228 | 1.1 | 1.23 | 1.28 | 1.13 | 0.91 | 0.473 | 0.558 | 0.647 | 0.534 | 0.489
LOU-NH91 | 0.734 | 0.699 | 0.765 | 0.825 | 0.764 | 0.388 | 0.38 | 0.389 | 0.382 | 0.448 | 0.727 | 0.665 | 0.746 | 0.734 | 0.564 | 0.791 | 0.811 | 0.844 | 0.823 | 0.787
HARA | 0.478 | 0.495 | 0.484 | 0.399 | 0.43 | 0.26 | 0.274 | 0.241 | 0.222 | 0.263 | 1.05 | 1.18 | 1.16 | 1.18 | 1.2 | 0.599 | 0.976 | 0.841 | 0.943 | 0.707
NCI-H1793 | 0.349 | 0.319 | 0.483 | 0.326 | 0.333 | – | – | 1.29 | 0.949 | 0.831 | – | 0.528 | 0.438 | 0.458 | 0.472 | – | 0.364 | 0.377 | 0.514 | 0.331
NCI-H596 | 0.641 | 0.816 | 0.829 | 0.792 | 0.723 | 0.535 | 0.465 | 0.507 | 0.582 | 0.486 | 0.987 | 0.802 | 1.14 | 0.945 | 0.956 | 0.762 | 0.86 | 0.723 | – | 1.02
HCC-44 | 0.29 | 0.238 | 0.274 | 0.145 | 0.142 | 0.615 | 0.607 | 0.676 | 0.68 | 0.692 | 0.96 | 0.964 | 1.05 | 0.946 | 0.969 | 1.06 | 1.14 | 1.1 | 1.08 | –
NCI-H2023 | 0.391 | 0.446 | 0.519 | 0.459 | 0.385 | 0.235 | 0.307 | 0.265 | 0.301 | 0.222 | – | 1.05 | 1.11 | 1.06 | 0.975 | 0.425 | 0.615 | 0.614 | 0.454 | 0.444
NCI-H2087 | 0.456 | 0.398 | 0.545 | 0.507 | 0.42 | 0.711 | 0.693 | 0.559 | 0.626 | 0.693 | 0.976 | 0.99 | 1.14 | 1.01 | 0.969 | 0.2 | 0.234 | 0.266 | 0.211 | 0.237
LCLC-97TM1 | 0.463 | 0.438 | 0.442 | 0.406 | 0.426 | 0.167 | 0.198 | 0.164 | 0.163 | 0.212 | 0.465 | 0.402 | – | 0.401 | 0.323 | 0.197 | 0.215 | 0.206 | 0.207 | 0.205
